Among the data in patent US11339178B2, “Inhibitors of microbial beta-glucuronidase enzymes and uses thereof” (The University of North Carolina at Chapel Hill, priority 2016, dated 2022) are IC50 values, retold here.

Test [1] has as its target S. agalactiae (SaGUS) β-Glucuronidase (Streptococcus agalactiae serotype V, UniProt Q8E0N2). Briefly: biochemical.
Test [2] has as its target C. perfringens (CpGUS) β-Glucuronidase (Clostridium perfringens, UniProt Q8XP19). Briefly: biochemical.
The target of test [3] is E. coli (EcGUS) β-Glucuronidase (Escherichia coli, UniProt P05804). Briefly: In vitro GUS inhibition, PNPG cleavage by purified E. coli GUS. The conditions noted are these: PNPG substrate, 37° C., 2 hours; NI = no inhibition. The test is classed as biochemical. The method, then: To assess GUS inhibition, cleavage of p-nitrophenyl-β-D-glucuronide (PNPG) by purified E. coli GUS in the presence of inhibitor was measured. The reaction was performed in 96-well clear-bottom plates at a volume of 50 μL. Each reaction contained 5 μL of 100 nM E. coli GUS, 5 μL of inhibitor at various concentrations, 10 μL of 250 mM HEPES and 250 mM NaCl assay buffer, and 30 μL of 1.5 mM PNPG. The reaction was initiated by addition of PNPG and incubated at 37° C. for 2 hours. End point absorbance values at 410 nm were measured using a PHERAstar Plus microplate reader. The resulting data were fit with a four-parameter logistic log function in SigmaPlot 13.0 to determine IC50 values. IC50 was defined as the concentration of inhibitor that yields a 50% reduction in product formation at equilibrium.
Chain of E. coli (EcGUS) β-Glucuronidase (P05804 whole entry): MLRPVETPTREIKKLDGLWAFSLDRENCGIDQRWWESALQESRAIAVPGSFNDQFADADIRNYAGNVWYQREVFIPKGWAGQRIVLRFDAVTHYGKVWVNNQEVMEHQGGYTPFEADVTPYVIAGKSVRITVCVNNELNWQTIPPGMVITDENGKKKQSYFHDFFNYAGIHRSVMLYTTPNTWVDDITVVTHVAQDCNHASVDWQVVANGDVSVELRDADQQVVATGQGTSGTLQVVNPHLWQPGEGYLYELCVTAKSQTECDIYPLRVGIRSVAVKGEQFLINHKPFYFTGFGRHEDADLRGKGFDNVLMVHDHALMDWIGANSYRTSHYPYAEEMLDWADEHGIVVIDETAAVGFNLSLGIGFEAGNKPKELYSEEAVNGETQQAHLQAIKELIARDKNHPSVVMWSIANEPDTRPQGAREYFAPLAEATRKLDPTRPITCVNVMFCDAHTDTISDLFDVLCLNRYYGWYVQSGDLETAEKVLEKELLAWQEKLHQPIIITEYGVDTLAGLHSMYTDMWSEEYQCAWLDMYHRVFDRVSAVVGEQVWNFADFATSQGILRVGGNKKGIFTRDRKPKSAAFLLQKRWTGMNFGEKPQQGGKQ

Structures are written as SMILES.

Chain of S. agalactiae (SaGUS) β-Glucuronidase (Q8E0N2 whole entry): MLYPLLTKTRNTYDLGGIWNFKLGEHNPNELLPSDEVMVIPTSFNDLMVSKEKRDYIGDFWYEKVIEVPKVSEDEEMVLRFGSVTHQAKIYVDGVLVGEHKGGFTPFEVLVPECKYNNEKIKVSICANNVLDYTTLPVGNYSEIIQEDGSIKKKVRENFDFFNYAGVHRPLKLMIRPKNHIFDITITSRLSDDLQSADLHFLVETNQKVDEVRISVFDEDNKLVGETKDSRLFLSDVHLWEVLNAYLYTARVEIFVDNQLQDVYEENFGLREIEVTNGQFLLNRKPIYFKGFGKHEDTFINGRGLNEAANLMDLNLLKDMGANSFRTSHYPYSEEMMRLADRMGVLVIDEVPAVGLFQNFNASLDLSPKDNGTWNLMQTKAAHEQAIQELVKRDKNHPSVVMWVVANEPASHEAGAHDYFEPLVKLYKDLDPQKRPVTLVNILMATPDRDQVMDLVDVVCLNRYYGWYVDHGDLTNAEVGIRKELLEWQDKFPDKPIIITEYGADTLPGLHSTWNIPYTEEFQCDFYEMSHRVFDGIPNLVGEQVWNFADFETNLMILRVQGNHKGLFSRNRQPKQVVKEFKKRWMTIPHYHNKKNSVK
Chain of C. perfringens (CpGUS) β-Glucuronidase (Q8XP19 whole entry, looked up): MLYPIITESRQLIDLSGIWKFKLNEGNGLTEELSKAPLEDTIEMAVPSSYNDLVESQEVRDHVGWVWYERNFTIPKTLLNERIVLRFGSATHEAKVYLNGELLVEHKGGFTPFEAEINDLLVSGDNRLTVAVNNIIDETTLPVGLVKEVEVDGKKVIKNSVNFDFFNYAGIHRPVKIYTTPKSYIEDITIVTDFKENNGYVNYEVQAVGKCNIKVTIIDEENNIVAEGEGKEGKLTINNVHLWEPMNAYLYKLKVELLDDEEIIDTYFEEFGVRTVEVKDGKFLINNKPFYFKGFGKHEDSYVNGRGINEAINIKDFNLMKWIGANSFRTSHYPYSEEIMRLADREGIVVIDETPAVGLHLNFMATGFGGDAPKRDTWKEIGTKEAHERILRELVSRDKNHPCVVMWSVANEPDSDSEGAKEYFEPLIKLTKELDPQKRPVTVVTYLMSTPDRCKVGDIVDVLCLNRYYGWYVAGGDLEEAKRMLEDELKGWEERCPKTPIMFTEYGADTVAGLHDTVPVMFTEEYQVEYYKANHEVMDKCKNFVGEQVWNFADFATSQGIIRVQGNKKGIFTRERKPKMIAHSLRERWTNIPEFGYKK

By IC50 is commonly meant the concentration that gives 50% inhibition. Turning to `CN1CCN(c2nnnc3c2sc2nc(N4CCOCC4)c4c(c23)CCCC4)CC1` [Compound 2], the values for the IC50 in test [1] and in test [2] were 22 ± 7 µM and 14.3 ± 0.3 µM, respectively.
On to `NN1CCN(c2nnnc3c2sc2nc(N4CCOCC4)c4c(c23)CCCC4)CC1` [Compound 3], for which the IC50 is 5 ± 0.5 µM in test [3], 6.7 ± 0.4 µM in test [1] and 4.5 ± 0.2 µM in test [2].
Regarding `C1CCc2c(c(N3CCOCC3)nc3sc4c(NC5CCNCC5)nnnc4c23)C1` [Compound 4], the IC50 in test [1] worked out at 70 ± 20 µM; in test [2], 5.7 ± 0.6 µM.
With `C1CCc2c(c(N3CCOCC3)nc3sc4c(N5CC6CC5CN6)nnnc4c23)C1` (stereo not drawn) [Compound 5], the IC50 is 2.7 ± 0.5 µM in test [1] and 4.5 ± 0.3 µM in test [2].
`C[C@@H]1CN(c2nnnc3c2sc2nc(N4CCOCC4)c4c(c23)CCCC4)CCN1` [Compound 6]: the IC50 in test [1] worked out at 0.55 ± 0.07 µM; in test [2] it was 3.9 ± 0.1 µM.
The like results for `C[C@H]1CN(c2nnnc3c2sc2nc(N4CCOCC4)c4c(c23)CCCC4)CCN1` [Compound 7] were, in that order, 0.55 ± 0.06 µM and 4.2 ± 0.3 µM.
The corresponding values for `C1CCc2c(c(N3CCOCC3)nc3sc4c(N5CCCNCC5)nnnc4c23)C1` [Compound 8] are 5 ± 1 µM and 13.7 ± 0.6 µM.
Consider `C1CCc2c(c(N3CCNCC3)nc3sc4c(N5CCNCC5)nnnc4c23)C1` [Compound 12], for which the figures for the IC50 in test [1] and in test [2] were 0.063 ± 0.006 µM and 0.12 ± 0.02 µM, respectively.
As to `C1CCN(c2nc3sc4c(N5CCNCC5)nnnc4c3c3c2CCCC3)CC1` [Compound 13], the IC50 in test [1] is 0.18 ± 0.02 µM; in test [2] it was 0.35 ± 0.02 µM.
The corresponding values for `C1CCC(Nc2nc3sc4c(N5CCNCC5)nnnc4c3c3c2CCCC3)CC1` [Compound 14] are 0.32 ± 0.05 µM and 0.48 ± 0.01 µM.
The corresponding values for `CN(C)c1nc2sc3c(N4CCNCC4)nnnc3c2c2c1CCCC2` [Compound 15] are 0.062 ± 0.005 µM and 0.18 ± 0.006 µM.
As for `CNc1nc2sc3c(N4CCNCC4)nnnc3c2c2c1CCCC2` [Compound 16], the IC50 in test [3] amounted to 0.07 ± 0.01 µM; in test [1], 0.039 ± 0.008 µM; in test [2], 0.18 ± 0.01 µM.
With `c1ccc(CNc2nc3sc4c(N5CCNCC5)nnnc4c3c3c2CCCC3)cc1` [Compound 17], the values for the IC50 in test [1] and in test [2] were 0.09 ± 0.02 µM and 0.29 ± 0.01 µM, respectively.
In the case of `c1cc2c(nc1N1CCOCC1)sc1c(N3CCNCC3)nnnc12` [Compound 19], the IC50 in test [1] was 0.64 ± 0.06 µM; in test [2] it was 0.22 ± 0.02 µM.
With `c1nc(N2CCNCC2)c2sc3nc(N4CCOCC4)ccc3c2n1` [Compound 20], the IC50 was 0.13 ± 0.01 µM in test [3], 0.69 ± 0.03 µM in test [1] and 0.053 ± 0.004 µM in test [2].
For `CNc1nc(N2CCNCC2)c2sc3nc(N4CCOCC4)ccc3c2n1` [Compound 21], the values for the IC50 in test [1] and in test [2] were 0.34 ± 0.05 µM and 0.1 ± 0.01 µM, respectively.
The like results for `c1ccc(-c2ccc3c(n2)sc2c(N4CCNCC4)nnnc23)cc1` [Compound 22] were, in that order, 0.7 ± 0.1 µM and 0.23 ± 0.03 µM.
Take `c1ccc(-c2ccc3c(n2)sc2c(N4CCNCC4)ncnc23)cc1` [Compound 23]: the IC50 in test [1] amounted to 0.55 ± 0.07 µM; in test [2], 0.44 ± 0.04 µM.
For `CNc1nc(N2CCNCC2)c2sc3nc(-c4ccccc4)ccc3c2n1` [Compound 24], the values for the IC50 in test [1] and in test [2] were 0.48 ± 0.03 µM and 0.45 ± 0.01 µM, respectively.
For the molecule `CN(C)c1nc(N2CCNCC2)c2sc3nc(-c4ccccc4)ccc3c2n1` [Compound 25], the IC50 in test [1] was 0.27 ± 0.03 µM; in test [2], 0.16 ± 0.02 µM.
For the molecule `OCCNc1nc(N2CCNCC2)c2sc3nc(-c4ccccc4)ccc3c2n1` [Compound 26], the IC50 turned out to be 0.49 ± 0.06 µM in test [1] and 0.41 ± 0.04 µM in test [2].
Take `CN(C)c1ccc2c(n1)sc1c(N3CCNCC3)nnnc12` [Compound 27]: the results for the IC50 in test [1] and in test [2] were 1 ± 0.2 µM and 0.22 ± 0.02 µM, respectively.
As for `CNc1nc(N2CCNCC2)c2sc3nc(N(C)C)ccc3c2n1` [Compound 28], the IC50 in test [1] turned out to be 0.5 ± 0.2 µM; in test [2] it was 0.28 ± 0.05 µM.
Regarding `CNc1ccc2c(n1)sc1c(N3CCNCC3)nc(NC)nc12` [Compound 29], the IC50 in test [1] was found to be 0.55 ± 0.07 µM; in test [2] it was 0.66 ± 0.09 µM.
In the case of `c1cnc2sc3c(N4CCNCC4)ncnc3c2c1` [Compound 30], the results for the IC50 in test [1] and in test [2] were 3 ± 2 µM and 0.577 ± 0.009 µM, respectively.
For `CNc1nc(N2CCNCC2)c2sc3ncccc3c2n1` [Compound 31], the IC50 in test [1] turned out to be 2 ± 1.5 µM; in test [2], 0.9 ± 0.3 µM.
For the molecule `CC1CN(c2nnnc3c2sc2nc(N4CCOCC4)c4c(c23)CCCC4)CCN1` (stereo not drawn) [Compound 44], in test [3], the IC50 was determined as 5.4 ± 0.6 µM.
`COc1nc(N2CCNCC2)c2sc3nc(-c4ccccc4)ccc3c2n1` [Compound 45]: the IC50 in test [3] stood at 0.14 ± 0.008 µM.
The molecule `c1cnc2sc3c(N4CCNCC4)nnnc3c2c1` [Compound 46] showed an IC50 in test [3] of 1.4 ± 0.04 µM.
Same read-out and setting: to `Clc1nc(N2CCNCC2)c2sc3nc(N4CCOCC4)ccc3c2n1` [Compound 47] belongs 0.03 ± 0.003 µM; to `Fc1ccc(CNc2nc3sc4c(N5CCNCC5)nnnc4c3c3c2CCCC3)cc1` [Compound 48], 0.208 ± 0.003 µM; to `CC1(C)CCc2c(N3CCOCC3)nc3sc4c(N5CCNCC5)nnnc4c3c2C1` [Compound 49], 0.62 ± 0.05 µM.
Turning to `CN(C)c1nc2sc3c(NCCN)nnnc3c2c2c1CCCC2` [Compound 50], inhibition in test [3] was half-maximal at 12 ± 2 µM (IC50).
On the same count and under the same terms, to `Clc1nc(N2CCNCC2)c2sc3nc(N4CCOCC4)c4c(c3c2n1)CCCC4` [Compound 51] belongs 0.9 ± 0.06 µM.
In test [3], `C[N+]1(C)CCN(c2nnnc3c2sc2nc(N4CCOCC4)c4c(c23)CCCC4)CC1` [Compound 52] came in with an IC50 of 6 ± 0.1 µM. Against the preceding molecule, the IC50 is about 6.7-fold higher.
In the case of `C1CCc2c(c(N3CCOCC3)nc3sc4c(N5CCNCC5)nnnc4c23)C1` [Inh9, reference compound], the IC50 in test [1] was found to be 0.117 µM; in test [2], 0.154 µM.
